We go through 16 compounds from US11053236B2, “Substituted isoselenazolone anti-infective, anti-inflammatory, anti-cancer, cytoprotective, neuroprotective, and anti-oxidant agents” (priority 2016, dated 2021).

The subject of one data set is Mtb H37Rv. In words: microbe, parasite or virus in culture. The format is cell-based. Conditions: Mycobacterium tuberculosis, MABA.
For another data set, the target named is Mtb Ag85C (Mycobacterium tuberculosis, UniProt P9WQN9). In words: Fluorometric resorufin butyrate/trehalose assay of Mtb Ag85C activity. The format is biochemical. As to conditions: for remaining activity at 5 µM: 5 μM compound, 40 min of incubation, normalized to control without inhibitor, read-out: Percent of Mtb Ag85C activity remaining.
Data set [1] deals with Mycobacterium tuberculosis H37Rv. Nature of the data set: Minimum inhibitory concentration for Mycobacterium tuberculosis H37Rv strain (Table A). The format is cell-based. As to conditions: for MIC / MIC50: Mycobacterium tuberculosis, Strain Mtb H37Rv.
The next data set concerns the target Ag85C (Mycobacterium tuberculosis, UniProt P9WQN9). Nature of the data set: Activity of Ag85C modified by compounds over time (FIGS. 6A-6B). The format is biochemical. From the text: FIGS. 6A-6B: Activity of Ag85C modified by compounds 506e (FIG. 6A) and 506f (FIG. 6B) over time.
FIGS. 6A-6B show the activity of Ag85C modified by compounds 506e and 506f over time.

Data set [2] relates to MRHF cells treated with TcdB and TcdA. Nature of the data set: Cytotoxicity assay: inhibition of toxin-induced cell rounding. The format is cell-based, human. As to conditions: 0.05 mL of 40 μM compound mixed with 0.05 mL TcdB and TcdA solution, 30 min; MRHF cells 2 h. The procedure: Cytotoxicity data was collected using a qualitative assay designed by Quidel to detect TcdB and TcdA presence in patients' stool samples. A solution containing TcdB and TcdA (0.05 mL) was mixed with 0.05 mL of a 40 μM solution of compounds of example 1-15 individually. These solutions were then incubated together for thirty minutes at room temperature. Then the 0.1 ml solutions were used to treat MRHF cells in a twenty four well plate. The cells were then incubated at thirty degrees Celsius under CO2 for two hours. Then, the cells were imaged using a 20× objective on an inverted microscope. […] Thus, compound 506o provides cytoprotection against Clostridium difficile toxins TcdB and TcdA.

In brackets after ≈: the same amount, converted by molar mass.

Mtb Ag85C, sequence (P9WQN9 46-340 limits assumed): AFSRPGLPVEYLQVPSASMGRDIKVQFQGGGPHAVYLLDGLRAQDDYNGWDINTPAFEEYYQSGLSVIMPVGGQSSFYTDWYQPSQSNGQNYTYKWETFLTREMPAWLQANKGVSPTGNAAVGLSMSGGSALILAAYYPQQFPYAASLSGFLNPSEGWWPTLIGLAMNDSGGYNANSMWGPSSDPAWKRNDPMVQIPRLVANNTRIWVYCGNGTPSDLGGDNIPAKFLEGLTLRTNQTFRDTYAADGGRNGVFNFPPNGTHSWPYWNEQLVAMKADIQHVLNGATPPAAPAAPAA
Ag85C, sequence (P9WQN9 46-340): as the sequence (P9WQN9 46-340 limits assumed) above

As a reminder, the melting point is the temperature, or range, at which the solid turns liquid. Compound `[N-]=[N+]=Nc1ccc(-n2[se]c3ccccc3c2=O)cc1` registered a melting point of 169 to 170 °C.
For `O=c1c2ccccc2[se]n1C12CC3CC(CC(C3)C1)C2`, the melting point is 215 to 217 °C.
The same measure, in the same setting: under `CC(C)(C)n1[se]c2ccccc2c1=O` stands 137 to 139 °C; under `CC(C)Cn1[se]c2ccccc2c1=O`, 114 to 116 °C.
In turn, `[N-]=[N+]=Nc1ccc(NC(=O)c2ccccc2[Se]C#Cc2ccccc2)cc1` [Compound 208, N-(4-Azidophenyl)-2-((phenylethynyl)selanyl)-benzamide] returned an MIC in the data set on Mtb H37Rv of no less than 50 µg/mL.
The remaining activity is the share of the control activity or signal that is left under treatment. In the data set on Mtb H37Rv, `O=C(CCCCC1SC[C@@H]2NC(=O)N[C@H]12)NCCOCCOCCOCCNC(=O)CCC(=O)N1Cc2ccccc2-c2nnn(-c3ccc(-n4[se]c5ccccc5c4=O)cc3)c2-c2ccccc21` (stereo partly drawn) [Compound 210, N-(13,16-dioxo-16-(3-(4-(3-oxobenzo[d][1,2]selenazol-2(3H)-yl)phenyl)-3,9-dihydro-8H-dibenzo[b,f][1,2,3]triazolo[4,5-d]azocin-8-yl)-3,6,9-trioxa-12-azahexadecyl)-5-((3aS,6aR)-2-oxohexahydro-1H-thieno[3,4-d]imidazol-4-yl)pentanamide] displayed an MIC of no less than 50 µg/mL. The remaining activity at 5 µM on Mtb Ag85C came to 61%.
For orientation: MIC50 means an inhibitory concentration at the 50% level, which refers to growth in some studies and to a panel of isolates in others. Higher therefore signals weaker potency. In data set [1], `COc1ccc(Cn2[se]c3ccccc3c2=O)cc1` [Compound 506a, 2-(4-methoxybenzyl)benzo[d][1,2]selenazol-3(2H)-one] displayed an MIC of 25 µg/mL (≈ 78.6 µM) and an MIC50 of 18.3 µg/mL (≈ 57.6 µM).
The like results for `COc1ccc(-n2[se]c3ccccc3c2=O)cc1` [Compound 506b, 2-(4-methoxyphenyl)benzo[d][1,2]selenazol-3(2H)-one] were, in that order, 25 µg/mL (≈ 82.2 µM) and 19.3 µg/mL (≈ 63.4 µM).
Turning to `COc1ccccc1Cn1[se]c2ccccc2c1=O` [Compound 506c, 2-(2-methoxybenzyl)benzo[d][1,2]selenazol-3(2H)-one], the melting point lay in the range of 169 to 170 °C. Moreover, in data set [1], the “MIC values against Mycobacterium tuberculosis compared with ebselen” value is on record as “lower than ebselen”, the MIC was 12.5 µg/mL (≈ 39.3 µM) and the MIC50 came to 10.4 µg/mL (≈ 32.6 µM). Further, the MIC in the data set on Mtb H37Rv came to 12.5 µg/mL (≈ 39.3 µM). The remaining activity at 5 µM at Mtb Ag85C is 36%.
Take `O=c1c2ccccc2[se]n1Cc1ccccc1` [Compound 506d, 2-benzylbenzo[d][1,2]selenazol-3(2H)-one]: in data set [1], the MIC was determined as 25 µg/mL (≈ 86.7 µM) and the MIC50 stood at 15 µg/mL (≈ 52.2 µM).
As a reminder, the IC50 is the concentration that inhibits the measured activity by half. As to `C=CCn1[se]c2ccccc2c1=O` [Compound 506e, 2-allylbenzo[d][1,2]selenazol-3(2H)-one], in data set [1], the “MIC values against Mycobacterium tuberculosis compared with ebselen” value is given as “lower than ebselen”, the MIC is 12.5 µg/mL (≈ 52.5 µM) and the MIC50 is 10.4 µg/mL (≈ 43.5 µM). This compound yielded an MIC against Mtb H37Rv of 12.5 µg/mL (≈ 52.5 µM). For the same compound, the remaining activity at 5 µM on Mtb Ag85C turned out to be 15%. Also, the IC50 on Mtb Ag85C (15 min of incubation, read-out: Apparent IC50 (appIC50) against Mtb Ag85C) amounted to 8.8 µM. Besides, the “Activity of Ag85C modified by compound over time” value on Ag85C is given as “decrease in the activity of Ag85C”.
Consider `O=c1c2ccccc2[se]n1CC1CCCCC1` [Compound 506f, 2-(cyclohexylmethyl)benzo[d][1,2]selenazol-3(2H)-one], for which, in data set [1], the MIC was 50 µg/mL (≈ 170 µM) and the MIC50 turned out to be 36.2 µg/mL (≈ 123 µM). Besides, the MIC in the data set on Mtb H37Rv was no less than 50 µg/mL. In addition, at Mtb Ag85C, the remaining activity at 5 µM amounted to 30%. Further, the “Activity of Ag85C modified by compound over time” value on Ag85C is “decrease in the activity of Ag85C”.
`O=c1c2ccccc2[se]n1C1CCCC1` [Compound 506l, 2-Cyclopentylbenzo[d][1,2]selenazol-3(2H)-one]: the melting point is 119 to 120 °C. Moreover, on Mtb Ag85C, the remaining activity at 5 µM came to 40%.
`O=c1c2ccccc2[se]n1C1CCCCC1` [Compound 506m, 2-Cyclohexylbenzo[d][1,2]selenazol-3(2H)-one]: the remaining activity at 5 µM at Mtb Ag85C turned out to be 44%.
On to `O=c1c2ccccc2[se]n1-c1ccccn1` [Compound 506o, 2-(Pyridin-2-yl)benzo[d][1,2]selenazol-3(2H)-one], for which the “Inhibition of cell rounding (cell appearance)” value in data set [2] is “more intermediate phenotype”.
As to `O=c1c2ccccc2[se]n1-c1ccccc1` [Ebselen, 2-phenyl-1,2-benzisoselenazol-3(2H)-one, reference compound], the MIC (in data set [1]; against Mtb H37Rv) was 12.5 µg/mL (≈ 45.6 µM) each time. Besides, the MIC50 in data set [1] was found to be 9.59 µg/mL (≈ 35 µM). Also, on Mtb Ag85C, the remaining activity at 5 µM turned out to be 17%. Moreover, the “Inhibition of cell rounding (cell appearance)” value in data set [2] is “maintained their string-like appearance”.
